In paper PMC9607599, “Dual Targeting Ligands—Histamine H3 Receptor Ligands with Monoamine Oxidase B Inhibitory Activity—In Vitro and In Vivo Evaluation” (Pharmaceutics, 2022):
Where “and” joins values, the source holds several entries; their conditions need not be identical. Equal values may be shown once. Read-outs that look alike come from different tables or passages of the source.

Experiments:
[1] = system: astrocyte cell line isolated from human cerebral cortex; experiment: MTT cell viability test on human astrocytes; format: cell-based; details: Astrocyte, human astrocytes, MTT
Method: The studies were performed on a commercially-available astrocyte cell line isolated from human cerebral cortex (ScienCell Research Laboratories, San Diego, CA, USA; Cat no. 1800). The cells (passage 7–8) were seeded into a 96-well plate at an amount of 10,000 cells/well and kept in accordance with the ScienCell Research Laboratories’ protocol, i.e., in astrocyte medium supplemented with 2% fetal bovine serum, 10% astrocyte growth supplement and 1% penicillin/streptomycin solution, in an atmosphere with 5% CO2 at 37 °C. The cells were allowed to grow for 24 h and then treated with increasing concentrations of test compounds (0.01–0.25 mg/mL) for 24 and 72 h. Astrocytes in the medium on each plate (regardless of the factors tested) were used as a positive control.
The viability of the astrocyte cell line was determined calorimetrically using 3-(4,5-dimethylthazol-2-yl)-2,5-diphenyltetrazolium bromide (MTT; Sigma-Aldrich Chemical Co. Ltd., Saint Louis, MO, USA) as described earlier. […] After the incubation time (24 or 72 h) with examined drugs, 50 μL MTT solution (1 mg/mL) was added to each well of the plate for another 4 h. The method is based on the reduction of a yellow tetrazolium salt (MTT) into purple formazan crystals by mitochondrial succinate-tetrazolium reductase system which is metabolically active in viable cells. At the end of the experiment, the cells were treated with 100 μL dimethyl sulphoxide, which enabled the release of the reaction product.
The absorbance was measured at 570 nm using a BioTek EL×800 microplate reader (BioTek, Winooski, Vermont, USA) and results were expressed as a percentage of the absorbance measured in control cells. The obtained values were plotted against different concentrations of each compound to calculate the viability inhibition concentration at 50% (IC50) using GraphPad Prism 6.07 (GraphPad Software, Inc., San Diego, CA, USA). The experiment was repeated in quadruplicate.
For the cytotoxicity assessment in the MTT assays, each test drug was used at 8 concentrations (range: 0.01–0.25 mg/mL).

[2] = target: T1, MAO A in rat cerebral cortex (Rattus norvegicus, UniProt P21396); experiment: MAO A activity in cerebral cortex homogenates after sub-chronic administration (radioassay); format: in vivo; details: 3 mg/kg/day s.c. for 6 days
T1 construct: from tissue; host or cells: cerebral cortex homogenate of male Wistar rats
T1 sequence (P21396 1-526): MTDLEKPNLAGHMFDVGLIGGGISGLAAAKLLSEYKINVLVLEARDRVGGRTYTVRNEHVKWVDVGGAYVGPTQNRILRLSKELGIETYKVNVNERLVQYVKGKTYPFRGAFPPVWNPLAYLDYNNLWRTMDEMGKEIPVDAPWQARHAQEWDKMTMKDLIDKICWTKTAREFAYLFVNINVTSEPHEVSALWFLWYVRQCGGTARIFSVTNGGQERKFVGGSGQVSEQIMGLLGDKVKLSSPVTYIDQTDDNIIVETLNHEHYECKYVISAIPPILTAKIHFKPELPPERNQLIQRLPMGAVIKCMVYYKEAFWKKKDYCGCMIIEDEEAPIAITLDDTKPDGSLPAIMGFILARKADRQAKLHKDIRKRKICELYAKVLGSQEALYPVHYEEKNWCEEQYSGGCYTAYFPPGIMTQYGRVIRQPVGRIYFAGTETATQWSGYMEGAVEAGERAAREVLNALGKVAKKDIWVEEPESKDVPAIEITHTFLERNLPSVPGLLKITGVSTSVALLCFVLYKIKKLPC
Method: (§1) The compound 13 was given to intact Wistar rats to verify its impact on the metabolism of biogenic amines in the brain (cerebral amines and their metabolites concentrations as well as activities of metabolizing enzymes). […] Both drugs (3 mg/kg body mass, dissolved in 0.9% NaCl) were given subcutaneously for 6 consecutive days. Control rats were injected with 200 μL of 0.9% NaCl.
(§2) Tissues were collected and properly prepared for subsequent biochemical analyzes. The brain was quickly removed from the skull and the selected structures (hypothalamus, striatum, cerebral cortex) were dissected according to the method by Glowinsky and Iversen, immediately frozen in liquid nitrogen and kept at −80 °C until assayed.
MAO A and MAO B activities were estimated in cerebral homogenates with radioassays using 5-[2-^14C]-hydroxytryptamine binoxalate (final conc. 200 µM) and β-[ethyl-1-^14C]-phenylethylamine hydrochloride (final conc. 20 µM), as well as specific inhibitors—clorgyline and deprenyl (final conc. 10^−9 M), respectively.
The enzyme activities are expressed as pmol/min/mg protein. Protein concentration was analyzed by Lowry’s method.

[3] = system: rat brain (cerebral cortex, hypothalamus, striatum) monoamines; experiment: HPLC-ED detection of monoamines and metabolites in rat brain tissue after sub-chronic administration; format: in vivo; details: for 5-HIAA/5-HT ratio / DOPAC/DA ratio / HVA/DA ratio / MHPG/NA ratio: mean ± SEM
Method: as §1, §2
The concentration of dopamine (DA), serotonin (5-HT) and noradrenaline (NA) as well as their metabolites, i.e., 3,4-dihydroxyphenylacetic acid (DOPAC), homovanillic acid (HVA), 3-methoxy-4-hydroxyphenylglycol (MHPG) and 5-hydroxyindoleacetic acid (5-HIAA) was determined in striatum (STR), hypothalamus (HPT) and cerebral cortex (CTX) with the RP-HPLC-ED method.
Cerebral samples for HPLC analysis were homogenized using an ultrasonic homogenizer (Fisher BioBlock Scientific, France) for 15 s in 150 μL homogenization solution (0.1 M HClO4 containing 0.4 mM Na2S2O5), and centrifuged at 12,000 rpm for 15 min at 4 °C. At least 100 μL of the supernatant was transferred to chromatographic tubes and kept at –80 °C until analysis. Next, 20 μL of the filtrates was injected into the HPLC system.
The Agilent 1100 chromatographic system with Waters Spherisorb ODS-1 RP C-18 chromatographic column (4.6 × 250 mm) preceded by a Zorbax SB-C18 pre-column (4.6 × 12.5 mm) was used. Column temperature was set at 35 °C and mobile phase flow at 1 mL/min. The glassy carbon working electrode was set at +0.65 V, relative to the Ag/AgCl reference electrode. The mobile phase consisted of a phosphate buffer (3.4 pH) containing: 0.15 M NaH2PO4 x H2O, […] Na2EDTA, 0.5 mM Na2OSA, 0.5 mM LiCl and addition of methanol (10%). The chromatographic data were analyzed using ChemStation, Revision-B.03.02, Agilent software.
The concentrations of monoamines and their metabolites in each sample were calculated from the integrated chromatographic peak area and presented in nmol/gram of wet tissue. Additionally, the ratio of metabolites to their parent amines was calculated.

[4] = 24 h incubation, read-out: IC50 24 h
[5] = 72 h incubation, read-out: IC50 72 h
[6] = cerebral cortex, 3 mg/kg s.c. for 6 days
[7] = not statistically significant, vs control
[8] = striatum, 3 mg/kg s.c. for 6 days

CC1CCCN1CCCOc1ccc(C(C)(C)C)cc1.O=C(O)C(=O)O (centres unmarked) [Compound 13, 1-(3-(4-(tert-Butyl)phenoxy)propyl)-2-methylpyrrolidine hydrogen oxalate]
IC50 [1, 4]: 230 µM and 84 µg/mL | IC50 [1, 5]: 142 µM and 52 µg/mL | inhibition at 3 mg/kg ([2]; rat, sc, data not shown): 12% | 5-HIAA/5-HT ratio ([3]; CTX, 3 mg/kg s.c. for 6 days): 1.211 ± 0.202 | DOPAC/DA ratio ([3]; CTX, 3 mg/kg s.c. for 6 days): 0.364 ±0.080 **^,## | HVA/DA ratio ([3]; CTX, 3 mg/kg s.c. for 6 days): 0.254 ± 0.015 *^,## | 5-HIAA/5-HT ratio ([3]; HPT, 3 mg/kg s.c. for 6 days): 0.810 ±0.061 | DOPAC/DA ratio ([3]; HPT, 3 mg/kg s.c. for 6 days): 0.359 ±0.117 | HVA/DA ratio ([3]; HPT, 3 mg/kg s.c. for 6 days): 0.329 ± 0.091 | MHPG/NA ratio ([3]; HPT, 3 mg/kg s.c. for 6 days): 0.205 ±0.030 | 5-HIAA/5-HT ratio ([3]; STR, 3 mg/kg s.c. for 6 days): 2.456 ± 0.908 | DOPAC/DA ratio ([3]; STR, 3 mg/kg s.c. for 6 days): 0.207 ± 0.067 | HVA/DA ratio ([3]; STR, 3 mg/kg s.c. for 6 days): 0.486 ± 0.388 | MHPG/NA ratio ([3]; STR, 3 mg/kg s.c. for 6 days): 0.329 ± 0.057 | 5-HIAA level in CTX [3, 6]: 1.320 ± 0.153 nmol/g wet tissue | 5-HT level in CTX [3, 6]: 1.194 ± 0.139 nmol/g wet tissue | DA content in CTX [3, 6]: 1.777 ± 0.128 nmol/g wet tissue | DOPAC level in CTX [3, 6]: 0.562 ± 0.093 nmol/g wet tissue | MHPG concentration in CTX [3, 6]: 0.897 ± 0.280 nmol/g wet tissue | NA concentration in CTX [3, 6]: 1.255 ± 0.152 nmol/g wet tissue | DA concentration in hypothalamus, in words [3, 7]: slight increase | DOPAC concentration in hypothalamus, in words [3, 7]: decrease | DA content in STR [3, 8]: 9.914 ± 1.718 nmol/g wet tissue | DOPAC level in STR [3, 8]: 1.704 ± 0.187 nmol/g wet tissue | 5-HIAA level in hypothalamus, in words ([3]; vs control): statistically significant decrease | 5-HT and 5-HIAA concentrations in the striatum, in words ([3]; vs control): did not affect | 5-HT content in hypothalamus, in words ([3]; vs control): no changes | NA and MHPG concentration in the other examined brain structures (HPT, STR), in words ([3]; vs control): no differences were found

Clc1ccc(CCCOCCCN2CCCCC2)cc1 [Pitolisant, 3-(4-chlorophenyl)propyl 3-piperidinopropyl ether, reference compound]
IC50 [1, 4]: 346 µM and 115 µg/mL | IC50 [1, 5]: 241 µM and 80 µg/mL | MAO A activity vs control, in words [2]: close to that recorded in control animals | content in brain tissue of the examined biogenic amines and their metabolites compared to control, in words ([3]; 3 mg/kg s.c. for 6 days): did not show any differences
